Measurements as given in patent US20200352912A1, “ANTIMICROBIAL COMPOSITIONS AND METHODS OF USING THE SAME” (The Board Of Supervisors Of Louisiana State University And …, priority 2018, published 2020).

Columns and labels:
[1] = tested on: C. albicans pre-formed biofilm; assay: pre-formed mature biofilm (XTT, CFU); format: cell-based, Candida albicans; settings: all concentrations tested, 24 h treatment
Description: The effect of L-161, 982 on pre-formed mature biofilms was tested. Mono- and dual-species C. albicans and/or S. aureus biofilms were grown on 96-well plates for 24 h before being treated with the indicated concentration of L-161, 982 for a further 24 h. After treatment, metabolic activity of biofilms was quantified by the XTT assay (A) and then biofilms were disrupted to determine live colony forming units (CFU) (B). The results are cumulative of three independent experiments with duplicate samples. Statistics were performed using One-way ANOVA with the Tukey post-hoc test for the XTT assay. The Mann-Whitney U test was used to analyze CFU data. Significance is indicated as follows: ns—not significant, *P<0.05; *** P<0.001. Error bars represent standard deviation.
Following growth as described above, microbes were washed in phosphate-buffered saline (PBS) by centrifugation, counted on a hemocytometer, and adjusted to 2×10^7 CFU/ml in RPMI buffered with MOPS (165 mM). […]
The XTT reduction assay was used to determine the metabolic activity of biofilms following treatment with L-161, 982 (17). Briefly, wells were washed once in PBS, and plates incubated at 37° C. for 2 h with 200 μl XTT working reagent (0.5 mg/ml XTT and 1 μM Menadione) and the resulting absorbance measured at 490 nm on a microplate spectrophotometer. […]

[2] = tested on: C. albicans and S. aureus; assay: mouse C. albicans-S. aureus polymicrobial intra-abdominal infection; format: in vivo, mice; settings: 10 mg/kg
Description: Effect of inhibition of EP4 receptor signaling on survival. Mice received either vehicle or EP4 receptor antagonist at a dose of 10 mg/kg by i.p. injection as indicated in Materials and Methods. Mortality was assessed using Kaplan Meier test (***P<0.001; n=20/group) compared to control groups. Data shown are representative of three replicate experiments.
The mouse peritonitis/intra-abdominal model was performed as previously described (8). In brief, for MRSA peritonitis, mice were injected intraperitoneally (i.p.) with 4×10^6 CFU or 5×10^6 CFU or 2×10^7 CFU of S. aureus in 0.2 ml of PBS containing 3% hog gastric mucin type III (Sigma Aldrich). Mice injected i.p. with 0.2 ml of mucin/PBS served as a negative infection control. For the intra-abdominal infection with C. albicans and S. aureus, mice were injected i.p. with 7×10^6 CFU of C. albicans and 8×10^7 CFU of S. aureus (8.7×10^7 CFU total) in 0.2 ml of PBS. After inoculation, mice were observed over 10 days for signs of morbidity (hunched posture, inactivity, lethargy, and ruffled fur) and mortality. […] In the MRSA peritonitis experiments, mice were sacrificed at 24 or 48 h post-inoculation to assess microbial burden. Peritoneal cavities were lavaged by injection of 2 ml of sterile PBS followed by gentle massaging of the peritoneal cavity. Peritoneal lavage fluid then was removed using a pipette inserted into a small incision in the abdominal cavity. Spleens were removed, weighed, and mechanically homogenized prior to CFU analysis. Microbial burdens in the peritoneal lavage fluid and spleen were enumerated as described above.
Each inhibitor was prepared fresh as a concentrated stock (20-25 mg/ml) in DMSO and diluted to a working concentration of […] in sterile PBS (final DMSO concentration, 2.3%). A sham treatment containing only 2.3% DMSO in PBS was also prepared. For the MRSA peritonitis study, the EP4 receptor antagonist was administered 2 h after S. aureus inoculation and once daily thereafter until day 4 post inoculation. For the IAI co-infection study, COX inhibitor or vehicle control was administered 4 h prior to and 4 and 8 h after inoculation with C. albicans and S. aureus while the EP receptor antagonists were administered daily starting 1 day prior to and 5 days after infection. All other procedures were performed as described above. Control groups received the vehicle at the same dose interval.
In a final set of experiments, we evaluated the ability of L-161, 982 to reduce lethality in co-infected mice. Mice co-inoculated with the standard 7×106 C. albicans CFU and 8×107 S. aureus CFU (8.7×10^7 CFU total) were treated with L-161, 982 (10 mg/kg) 2 h post infection and once daily afterwards until day 5. […]

Compound: CCCCc1nn(-c2ccccc2C(F)(F)F)c(=O)n1Cc1ccc(-c2ccccc2S(=O)(=O)NC(=O)c2sccc2C)cc1 [L-161, 982, N-[[4′-[[3-Butyl-1,5-dihydro-5-oxo-1-[2-(trifluoromethyl)phenyl]-4H-1,2,4-triazol-4-yl]methyl][1,1′-biphenyl]-2-yl]sulfonyl]-3-methyl-2-thiophenecarboxamide]
- metabolic activity of pre-formed biofilm [1]: no significant inhibitory effects
- survival enhanced by [2]: 40%
- survival ([2]; vehicle control 10): 50%
